According to patent publication US20060127432A1, “Surface treatment for wood and wood products” (priority 2002, published 2006):
Marks after values point to notes of the source that are not given here.

Tests used:
Mastotermes darwiniensis [1] = experiment: Field drum test (AWPA protocols), treated radiata pine exposed to termites; format: in vivo; set-up: Mean score: scale not given here; conditions: for Mean score / Pass or Fail: radiata pine, field
Experimental: (§1) The rates required to achieve protection are 4 and 23 g/m3 applied on the surface of 35×90 mm radiata pine for Coptotermes acinaciformis and Mastotermes darwiniensis respectively. These studies were conducted using the drum test described by the AWPA protocols.

[2] = test system: workers who handled the treated timber; experiment: OH&S testing, handling of treated timber; format: in vivo
Text: (§2) Until this invention, adequately protecting timber against termite attack required a treatment which provided significant penetration of the sapwood. This was the case due to the fact that other available active ingredients degraded very quickly when exposed to increased temperature and Ultra Violet (UV) light. The penetration was required to protect the active ingredient (“active”) from the degradation. The most common used active in the 1990's which penetrated the timber was Permethrin. […] Thus, when using Permethrin, it was required to penetrate into the timber otherwise the product would degrade and not protect the timber. […] This problem was so severe that it made the use of Deltamethin unviable.
(§3) This increased stability together with the repellent effects of Bifenthrin combined to allow only a superficial treating of the timber where the need for significant penetration is not required.

termites = experiment: Simulated house frames exposed to 120,000 termites; format: in vivo; conditions: superficial treatment, ends not treated; six months of exposure, 120,000 termites
Text: The ends of the samples were not treated. Simulated frames were exposed to 120,000 termites.

[3] = test system: Coptotermes acinaciformis; experiment: Field drum test (AWPA protocols), treated radiata pine exposed to termites; format: in vivo; set-up: key to Mean rating: 1: Sound; 2: Superficial attack-grazing; Penetration - >3 mm in depth; 4: Attack Slight −10-25% mass loss; Attack Moderate 25-50% mass loss; 6: Attack Severe 50-70% mass loss; Attack Destroyed 75-100% mass loss; conditions: for Mean rating / Success (Pass or Fail) / Pass or Fail: radiata pine, field
Experimental: as §1
Additives can be incorporated during the application of bifenthrin, for example colors, fire retardants, water repellents and resins.
A modification of superficial treatments is the partial introduction of bifenthrin into the wood. The result of this is an envelope around the cross section of the timber board or wood product or just a partial penetration.

[4] = test system: Coptotermes acinaciformis; experiment: Timber protection using standard practice in the timber industry; format: in vivo
Text: (§4) The rates are 5 and 20 g/m3 respectively.

Mastotermes darwiniensis [5] = experiment: as above; format: in vivo
Text: as §4

[6] = Degradation on exposure to temperature and UV light; format: physicochemical
Text: as §2, §3

Solubility in water = format: physicochemical
Text: (§5) These two attributes of bonding & water insolubility, together with the abovementioned stability when exposed to temperature and UV result in the chemical staying on the timber when exposed to rain, sunlight, temperature or handling. No other chemicals used in the past have such characteristics which would allow a mere superficial treatment.

Bonding to timber = format: physicochemical; conditions: compared with Permethrin
Text: as §5

[7] = 15 g/m^3, superficial treatment
[8] = 23 g/m^3, superficial treatment
[9] = 38 g/m^3, superficial treatment
[10] = applied on the surface of 35×90 mm radiata pine (dipping or spraying)
[11] = 4 g/m^3 + water repellents, superficial treatment
[12] = 8 g/m^3 + water repellents, superficial treatment
[13] = 15 g/m^3 + water repellents, superficial treatment
[14] = 23 g/m^3 + water repellents, superficial treatment
[15] = Partial penetration more than 3 mm, 6-12 g/m^3
[16] = Partial penetration more than 3 mm, 13-20 g/m^3

For Cc1c(COC(=O)[C@@H]2[C@H](/C=C(\Cl)C(F)(F)F)C2(C)C)cccc1-c1ccccc1 (racemic) [Bifenthrin], the Mean score (Mastotermes darwiniensis [1]; 4 g/m^3, superficial treatment) was 3.3, the “Pass or Fail” value (Mastotermes darwiniensis [1]; 4 g/m^3, superficial treatment) was “Fail” and the Mean score (Mastotermes darwiniensis [1]; 8 g/m^3, superficial treatment) was 2.2. The “Pass or Fail” value (Mastotermes darwiniensis [1]; 8 g/m^3, superficial treatment) was “Fail”, the Mean score (Mastotermes darwiniensis [1]; [7]) was 2.0 and the “Pass or Fail” value (Mastotermes darwiniensis [1]; [7]) was “Fail”. The Mean score (Mastotermes darwiniensis [1]; [8]) was 1.7, the “Pass or Fail” value (Mastotermes darwiniensis [1]; [8]) was “Pass” and the Mean score (Mastotermes darwiniensis [1]; [9]) was 1.0. The “Pass or Fail” value (Mastotermes darwiniensis [1]; [9]) was “Pass”, the “Rate required to achieve protection” value (Mastotermes darwiniensis [1]; [10]) was 23 g/m3 and the “Skin irritation / parasthesia on exposure to treated timber” value [2] was “does not produce any skin irritation”. For the same compound, the “Attack of simulated frames” value (termites) was “the treated frames were not”, the Mean rating [3, 11] was 1.2 and the “Success (Pass or Fail)” value [3, 11] was “Pass”. The Mean rating [3, 12] was 1.3, the “Success (Pass or Fail)” value [3, 12] was “Pass” and the Mean rating [3, 13] was 1.2^b. The “Success (Pass or Fail)” value [3, 13] was “Pass”, the Mean rating [3, 14] was 1.2 and the “Success (Pass or Fail)” value [3, 14] was “Pass”. For the same compound, the Mean rating [3, 15] was 1.0, the “Success (Pass or Fail)” value [3, 15] was “Pass” and the Mean rating [3, 16] was 1.0. The “Success (Pass or Fail)” value [3, 16] was “Pass”, the “Repellent effect with added water repellents” value ([3]; addition of water repellents) was “did not mask the repellent effect” and the “Rate required to achieve protection” value [3, 10] was 4 g/m3. The “Rate required to protect timber” value [4] was 5 g/m3, the “Rate required to protect timber” value (Mastotermes darwiniensis [5]) was 20 g/m3 and the “Degradation through exposure to UV or heat” value ([6]; superficially treated timber) was “significant penetration was not required to protect the active against degradation”. The Solubility in water (Solubility in water) was “virtually insoluble in water” and the Bonding co-efficient (Bonding to timber) was “significantly greater than that of Permethrin”.
In the case of CC1(C)[C@H](C(=O)O[C@H](C#N)c2cccc(Oc3ccccc3)c2)[C@@H]1C=C(Br)Br [Deltamethrin], the “Skin irritation / parasthesia on exposure to treated timber” value [2] is reported as “all workers who handled the treated timber complained of a parasthesia or skin irritation” and the “Resistance to UV light” value [6] is reported as “degrade rapidly when exposed to UV light”.
With CC1(C)C(C=C(Cl)Cl)C1C(=O)OCc1cccc(Oc2ccccc2)c1 (stereo not drawn) [permethrin, Permethrin] the Mean score (Mastotermes darwiniensis [1]; 0.02% m/m permethrin (LOSP)) was 1.8, the “Pass or Fail” value (Mastotermes darwiniensis [1]; 0.02% m/m permethrin (LOSP)) was “Pass” and the Mean score (Mastotermes darwiniensis [1]; .007% m/m permethrin (LOSP)) was 2.2. For the same compound, the “Pass or Fail” value (Mastotermes darwiniensis [1]; .007% m/m permethrin (LOSP)) was “Fail”, the Mean score (Mastotermes darwiniensis [1]; .013% m/m permethrin (LOSP)) was 2.2 and the “Pass or Fail” value (Mastotermes darwiniensis [1]; .013% m/m permethrin (LOSP)) was “Fail”. For the same compound, the Mean rating ([3]; 0.007% m/m OD permethrin) was 2, the “Pass or Fail” value ([3]; 0.007% m/m OD permethrin) was “Fail” and the Mean rating ([3]; 0.013% m/m OD permethrin) was 1.8. The “Pass or Fail” value ([3]; 0.013% m/m OD permethrin) was “Fail”, the Mean rating ([3]; 0.02% m/m OD permethrin) was 1.3 and the “Pass or Fail” value ([3]; 0.02% m/m OD permethrin) was “Pass”. The “Resistance to UV light” value [6] was “very low resistance to UV light” and the “Degradation on exposure to temperature” value ([6]; heat) was “degrade when exposed to temperatures above 25 degrees centigrade”.
